Laboratory results published in patent US10232058B2, “Prostate-specific membrane antigen-targeted photosensitizers for photodynamic therapy” (THE JOHNS HOPKINS UNIVERSITY, priority 2013, dated 2019).

Molecular target: PSMA (Homo sapiens, UniProt Q04609)
Assay: fluorescence-based PSMA binding assay
Details: read-out: PSMA binding affinity Ki

Sequence of PSMA (Q04609 whole entry): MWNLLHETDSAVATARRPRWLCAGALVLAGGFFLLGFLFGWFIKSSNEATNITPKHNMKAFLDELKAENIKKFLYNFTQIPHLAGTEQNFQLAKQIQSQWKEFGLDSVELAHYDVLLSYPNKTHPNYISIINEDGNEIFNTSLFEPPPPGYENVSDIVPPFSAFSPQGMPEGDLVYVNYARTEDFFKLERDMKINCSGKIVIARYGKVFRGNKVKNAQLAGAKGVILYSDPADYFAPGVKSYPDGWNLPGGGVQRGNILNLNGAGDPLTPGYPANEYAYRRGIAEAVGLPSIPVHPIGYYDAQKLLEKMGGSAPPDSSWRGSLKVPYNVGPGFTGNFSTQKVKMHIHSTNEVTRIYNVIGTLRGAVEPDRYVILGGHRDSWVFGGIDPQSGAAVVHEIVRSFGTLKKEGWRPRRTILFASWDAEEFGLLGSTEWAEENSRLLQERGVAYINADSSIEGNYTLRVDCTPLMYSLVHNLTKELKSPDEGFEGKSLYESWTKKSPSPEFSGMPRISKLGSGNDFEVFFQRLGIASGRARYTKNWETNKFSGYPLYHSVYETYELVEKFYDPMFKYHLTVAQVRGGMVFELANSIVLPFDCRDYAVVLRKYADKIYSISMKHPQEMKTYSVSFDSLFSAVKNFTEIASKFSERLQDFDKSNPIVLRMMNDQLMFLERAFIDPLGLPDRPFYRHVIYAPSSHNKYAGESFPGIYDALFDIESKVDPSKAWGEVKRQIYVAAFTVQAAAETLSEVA

`C=Cc1c(C)c2cc3nc(c4c5[nH]c(cc6nc(cc1[nH]2)C(C)=C6CC)c(C)c5C(=O)C4)[C@H](CCC(=O)NCCCCC(NC(=O)CCCCCCC(=O)NCCCC[C@H](NC(=O)N[C@@H](CCC(=O)O)C(=O)O)C(=O)O)C(=O)O)[C@H]3C` (stereo partly shown) [YC-6] showed a Ki of 1.2 nM.
